Format in all cases: cell-based
The subject of one experiment is A549. The experiment in a line: Anti-proliferative activity, cell-titre luminescent viability assay. Conditions: Homo sapiens, read-out: IC50 Lung (NSLC) A549. The gist of the method:
(§1)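 Cells were seeded at pre-determined densities, cultured 24 hours at 37° C/5% CO2, then exposed 72 hours to compound at 0.03, 0.3, 3 and 30 μM or at 0.1, 0.3, 1, 3, 10 and 30 μM. Viability was read by cell-titre luminescence after 30 min, normalized to untreated control, and IC50 or EC50 derived.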

A further experiment concerns CaCo2. Described as above. The conditions noted are these: Homo sapiens, read-out: IC50 Colorectal CaCo2. The gist of the method: as §1
The next experiment deals with DU145. The experiment is described as above. The conditions noted are these: Homo sapiens, read-out: IC50 Prostate DU145. Put shortly:
as §1

The next experiment has as its system MDA-MB-231. Described as above. Conditions: Homo sapiens, read-out: IC50 Breast MDA-MB-231. The gist of the method:
as §1

A further experiment has as its system PC3. The description is as above. Conditions: Homo sapiens, read-out: IC50 Prostate PC3. Put shortly: as §1
In a further experiment the test system is SK-Mel-28. The description is as above. Conditions: Homo sapiens, SK-MEL-28, 72 hours, read-out: IC50 Melanoma SK-Mel-28. The gist of the method: as §1
Another experiment deals with SK-N-SH. Described as above. Conditions: Homo sapiens, SK-N-SH, read-out: IC50 Neuroblastoma SK-N-SH. The gist of the method:
as §1

Experiment [1] deals with total actin cytoskeleton in SK-N-SH neuroblastoma cells. Nature of the experiment: Microfilament disruption assay, phalloidin staining. Conditions: 0-40 μM, 24 hours post treatment. As for the experimental part: (§2) FIG. 1: Imaging and quantitation of actin filaments in SK-N-SH neuroblastoma cells treated with compound (A) 3504, (B) 3507 and (C) 3516. Cells were stained with 488-Atto-Phallodin and DAPI to visualize the actin filament bundles and the nucleus, respectively. Shown in the top panel is a representative grey scale immunofluorescent image from control (vehicle alone), 5 μM and 10 μM treated cells. […] The coloured lines indicate the detected actin filaments. Also shown is the quantitation of cell number, filament number/cell and filament number/cell area (μM^2). […]
(§3) The ability of compounds 3504, 3507 and 3516 to disrupt the total actin cytoskeleton (FIG. 1) and to specifically target Tpm3.1-containing actin filaments (FIG. 2) was assessed in vitro using the microfilament disruption assay.
(§4) Briefly, SK-N-SH neuroblastoma cells were seeded at 1800 cells/well in a 384 Perkin Elmer High Content Imaging “View” plate and left to plate down 24 hours prior to treatment. […] Images were then exported and changes in the organization and numbers of actin filaments within the cell were quantitated using a linear feature detection algorithm developed by the CSIRO (Vindin et al., 2014). […] It is these “ridge lines” that correspond to actin filament bundles and allow us to quantitate the number of filaments per cell.

Experiment [2] relates to Tpm3.1-containing actin filaments in SK-N-SH neuroblastoma cells. Nature of the experiment: Microfilament disruption assay, γ9d staining. The conditions noted are these: 0-40 μM, 24 hours post treatment. The procedure: as §2, with “FIG. 2:” for “FIG. 1:”, “with γ9d (sheep polycolonal, 1:100) followed by 488-conjugated secondary (1:1000)” for “with 488-Atto-Phallodin”, “the Tpm3.1 containing” for “the actin”
as §3, §4

Where two headings read alike, the source gives them in different places.

Data on 2 compounds can be found in patent US20170152226A1, “FUNCTIONALISED AND SUBSTITUTED INDOLES AS ANTI-CANCER AGENTS” (Novogen Ltd., priority 2014, published 2017).

The IC50 is the concentration that inhibits the measured activity by half.

Regarding `Cc1c(C)n(CCCN2CCN(C)CC2)c2ccc(Cc3cccc(C(=O)N4CCN(CCc5cccc(F)c5)CC4)c3)cc12` [Compound 3504, (3-((2,3-dimethyl-1-(3-(4-methylpiperazin-1-yl)propyl)-1H-indol-5-yl)methyl)phenyl)(4-(3-fluorophenethyl)piperazin-1-yl)methanone], the concentration for half-maximal inhibition (IC50) came out at 1600 nM in the experiment with A549 (A549, 72 h, 0.1, 0.3, 1, 3, 10 and 30 μM, nonlinear regression sigmoidal dose-response (EC50)); 1800 nM with CaCo2 (Caco-2, 72 h, 0.1, 0.3, 1, 3, 10 and 30 μM, nonlinear regression sigmoidal dose-response (EC50)); 1400 nM in the experiment with DU145 (DU-145, 72 h, 0.1, 0.3, 1, 3, 10 and 30 μM, nonlinear regression sigmoidal dose-response (EC50)); 1500 nM with MDA-MB-231 (MDA-MB-231, 72 h, 0.1, 0.3, 1, 3, 10 and 30 μM, nonlinear regression sigmoidal dose-response (EC50)); 2000 nM in the experiment with PC3 (PC-3, 72 h, 0.1, 0.3, 1, 3, 10 and 30 μM, nonlinear regression sigmoidal dose-response (EC50)); 1100 nM in the experiment on SK-Mel-28 (0.1, 0.3, 1, 3, 10 and 30 μM, nonlinear regression sigmoidal dose-response (EC50)). Further, in the experiment on SK-N-SH (72 h, 0.1, 0.3, 1, 3, 10 and 30 μM, nonlinear regression sigmoidal dose-response (EC50)), the IC50 worked out at 1500 nM. Moreover, the “disruption of the total actin cytoskeleton” value in experiment [1] is on record as “in a dose-dependent manner”. In addition, the “disruption of Tpm3.1-containing actin filaments” value in [2] was “in a dose-dependent manner”.

`Cc1c(C)n(CCCN2CCN(C)CC2)c2ccc(Nc3cccc(C(=O)N4CCN(CCc5cccc(F)c5)CC4)c3)cc12` [Compound 3516, (3-((2,3-dimethyl-1-(3-(4-methylpiperazin-1-yl)propyl)-1H-indol-5-yl)amino)phenyl)(4-(3-fluorophenethyl)piperazin-1-yl)methanone]: the IC50 in the experiment with A549 (A549, 72 h, 0.03, 0.3, 3 and 30 μM, linear regression of semi-log plots) came to 2200 nM; with CaCo2 (Caco-2, 72 h, 0.03, 0.3, 3 and 30 μM, linear regression of semi-log plots) it was 2100 nM; in the experiment with DU145 (DU-145, 72 h, 0.03, 0.3, 3 and 30 μM, linear regression of semi-log plots), 3000 nM; with MDA-MB-231 (MDA-MB-231, 72 h, 0.03, 0.3, 3 and 30 μM, linear regression of semi-log plots), 1300 nM; in the experiment on PC3 (PC-3, 72 h, 0.03, 0.3, 3 and 30 μM, linear regression of semi-log plots), 3500 nM; in the experiment on SK-Mel-28 (0.03, 0.3, 3 and 30 μM, linear regression of semi-log plots), 2600 nM. Also, the IC50 with SK-N-SH (72 h, 0.03, 0.3, 3 and 30 μM, linear regression of semi-log plots) was determined as 1400 nM. In addition, the “disruption of the total actin cytoskeleton” value in experiment [1] is given as “in a dose-dependent manner”. Besides, the “disruption of Tpm3.1-containing actin filaments” value in [2] is on record as “in a dose-dependent manner”.
